This note sets out measurements from patent US20250282746A1, “HALOGEN-SUBSTITUTED ISOINDOLINE COMPOUND AND USE THEREOF” (CHENGDU FENDI PHARMACEUTICAL CO., LTD., priority 2022, published 2025).

For one data set, the system named is MV-4-11-Luc xenograft. In words: Efficacy in acute myeloid leukemia MV-4-11-luc xenograft mouse model. The format is in vivo. The settings on record: for T/C (%) Day 3 / T/C (%) Day 7 / T/C (%) Day 10 / T/C (%) Day 14: 10 mg/kg orally twice daily, NSG mice. The text has this:
In an in vivo efficacy study, female immunocompromised NSG mice aged 6 to 8 weeks were used and the experimental procedures started after the animals were acclimatized in the experimental environment for 7 days. The animals were housed in SPF animal rooms in individually ventilated cages (IVCs) each containing 6 mice. Human acute myeloid leukemia MV-4-11 cells expressing luciferase (MV-4-11-luc) were grafted into mice by tail vein injection (5×10^6 cells/mouse). Seven days after the cell grafting, the mice were subjected to imaging on the IVIS Lumina III small animal imaging system for grouping and administration, and tumor-bearing mice were randomized to the vehicle control group or treatment groups (6 mice/group). The compound (10 mg/kg, twice daily) was administered to the animals in each treatment group by oral gavage. The body weight was measured daily, while mean luminescence was measured after the start of treatment with the compounds or vehicle.
Indicators: The indicators were to investigate whether the tumor growth was inhibited or delayed or the tumor was cured. The tumor size was measured twice weekly using the IVIS Lumina III small animal imaging system. The tumor signals were determined by exposure photons per second. The anti-tumor efficacy of the compounds was evaluated by the tumor proliferation rate T/C (%). T/C %=TRTV/CRTV×100% (TRTV: the RTV of the treatment group; CRTV: the RTV of negative control group; RTV=Vt/V0, where V0 is the tumor signal measured at the time of grouping and administration (i.e., day 0), and Vt is the tumor signal at every measurement). According to the guidelines of the Center for Drug Evaluation, NMPA, a T/C (%) of >40% denotes the absence of efficacy, while a T/C of <40% with P<0.05 denotes the presence of efficacy.

Another data set has as its target T1, hERG potassium channel (Homo sapiens, UniProt Q12809).
T1 construct: expressed in transfected cells; host or cells: HEK293 cells
In words: hERG inhibition assay (automated patch clamp, HEK293). The format is cell-based. The settings on record: 3 μM, HEK293 cells, QPatch. An excerpt: The rapidly activating potassium channel encoded by human ether-a-go-go-related gene (hERG) is an important ion channel involved in the formation of cardiac action potential phase 3 repolarization. Blocking of the hERG channel by drugs can lead to the prolongation of cardiac repolarization and thus a prolonged QT interval in the electrocardiogram, known as long QT syndrome. Drug-induced delayed ventricular repolarization may in some cases trigger fatal arrhythmia-torsade de pointes-type ventricular tachycardia.
This assay was used to measure the effect of compounds on the hERG potassium channel clones expressed in human embryonic kidney (HEK293) cells. The assay procedures are as follows: the cells were transferred into a HEPES-buffered saline in glass-lined 96-well plates and exposed to an appropriate amount of test compound or control solution at various concentrations for 3 min. The test compounds were diluted in 0.3% DMSO.
(In general: The hERG channel carries a current that helps repolarise heart muscle cells.)

The target in a further data set is T2, GSPT1 protein (Homo sapiens, UniProt P15170).
T2 construct: The whole cell lysate was prepared using a RIPA lysis buffer; endogenous in cells; host or cells: NB-4 cells
Put plainly: Degradation of GSPT1 protein in NB-4 cells (Western blot). The format is cell-based. Conditions: NB-4 cells, compound 1 μM, 6 h; read-out: GSPT1 degradation. In a few lines:
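GSPT1 levels were read by Western blot (4-20% SDS-PAGE, PVDF, overnight primary antibody at 4 °C) on lysates of NB-4 cells.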
A general note: Immunoblotting shows a protein as a band on a membrane.

A further data set concerns U937 cells. In words: Antiproliferative activity against various tumor cells: U937. In kind it is cell-based. Conditions: Homo sapiens, U-937; U937 cells, 72 h; read-out: Antiproliferative activity IC50 U937. The procedure: (§1) U937, NCI-H929, AML-2, and MOLM-13 cells in the logarithmic growth phase were diluted in media RPMI+10% FBS, RPMI+10% FBS, MEMα+20% FBS, RPMI+20% FBS, respectively, and plated at 4,000 cells/well in 96-well whole black plates (WHB) with 50 μL/well. After plating, the plates were incubated in an incubator at 5% CO2 and 37° C. for 24 h before the compounds were added. The compounds were prepared into a 10 mM stock solution in DMSO and diluted in a culture medium to the desired concentrations (a final DMSO concentration of 0.2%). […] The plates were incubated at 5% CO2 and 37° C. for 72 h. After the incubation was complete, the plates were equilibrated at room temperature for 30 min. CellTiter-Glo® Reagent (Promega G7573) was added at 100 μL/well. The plates were shaken for 12 min on a microplate shaker. The luminescence value was measured at room temperature by the GloMax navigator (Promega GM2010).

For data set [1], the system named is MV-4-11 cells. Put plainly: Apoptotic effect on AML cells (annexin/PI flow cytometry). The settings on record: 1 μM and 100 nM. The format is cell-based, human. The procedure: MV-4-11 cells in the logarithmic growth phase were diluted in a growth medium and plated at 600,000 cells/well in 6-well plates with 2 mL/well and the compounds were added. The cells were collected, washed twice with pre-cooled PBS, and resuspended in 100 μL of 1× annexin-binding buffer. 5 μL of FITC and 1 μL of 100 µg/mL PI were added. The cells were incubated at room temperature in the dark for 15 min and transferred on ice, and 400 μL of 1× annexin-binding buffer was added. The mixture was gently mixed and subjected to flow cytometry.

Data set [2] relates to MV-4-11 cells. Put plainly: Antiproliferative activity against MV-4-11 cells (CellTiter-Glo, 72 h). The settings on record: Homo sapiens, MV4-11; MV-4-11 cells, 72 h; read-out: Antiproliferative activity IC50. In kind it is cell-based. In a few lines:
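MV-4-11 cells in RPMI + 10% FBS plated at 5,000 cells/well and pre-incubated 24 h at 37 °C, 5% CO2. Compounds were then added (final DMSO 0.2%) and cells incubated 72 h. Viability was read by CellTiter-Glo luminescence after 30 min equilibration at room temperature.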

The test system of data set [3] is MOLM-13 cells. In words: Antiproliferative activity against various tumor cells: MOLM-13. In kind it is cell-based. Conditions: Homo sapiens; MOLM-13 cells, 72 h; read-out: Antiproliferative activity IC50 MOLM-13. As for the experimental part: as §1
Data set [4] deals with NCI-H929 cells. Put plainly: Antiproliferative activity against various tumor cells: NCI-H929. In kind it is cell-based. The settings on record: Homo sapiens; NCI-H929 cells, 72 h; read-out: Antiproliferative activity IC50 NCI-H929. As for the experimental part:
as §1

A further data set deals with AML-2 cells. Put plainly: Antiproliferative activity against various tumor cells: AML-2. The format is cell-based. The settings on record: AML-2 cells, 72 h; read-out: Antiproliferative activity IC50 AML-2. As for the experimental part:
as §1

Data set [5] has as its system MOLM-13 cells. In words: Antiproliferative effect alone and in combination with azacitidine against MOLM-13 cells. The settings on record: MOLM-13 cells, 72 h. The format is cell-based. The procedure: (§2) MOLM-13 cells in the logarithmic growth phase were diluted in a medium RPMI+[…], and NCI-H929 cells were diluted in a medium RPMI+10% FBS. The cells were plated at 4,000 cells/well in 96-well whole black plates (WHB) with 50 μL/well. After plating, the plates were incubated in an incubator at 5% CO2 and 37° C. for 24 h before the compounds were added. The compounds were prepared into a 10 mM stock solution in DMSO and diluted in a culture medium to the desired concentrations (a final DMSO concentration of 0.2%). 50 μL of the compound dilutions at final concentrations of 10,000, 3,333.33, 1,111.11, 370.37, 123.46, 41.15, 13.72, 4.57, 1.52, and 0 nM were added to the 96-well plates containing the cells, that is, each compound was serially diluted to 10 concentrations in duplicate. The plates were incubated at 5% CO2 and 37° C. for 72 h. When pharmaceutical partners were used, the concentrations of azacitidine and dexamethasone were kept at 200 nM and 500 nM respectively, and the compounds were serially three-fold diluted from 10,000 nM. After the incubation was complete, the plates were equilibrated at room temperature for 30 min. CellTiter-Glo® Reagent (Promega G7573) was added at 100 μL/well. The plates were shaken for 12 min on a microplate shaker. The luminescence value was measured at room temperature by the GloMax navigator (Promega GM2010). The IC50 values were calculated using the GraphPad Prism 7 software with the 0 nM control group as 0% inhibition.

Data set [6] has as its system NCI-H929 cells. In words: Antiproliferative effect alone and in combination with dexamethasone against NCI-H929 cells. The format is cell-based. Conditions: 72 h, read-out: IC50. The procedure: as §2

pIC50: −log10 of the molar value. Entries after “also recorded” stand apart in the source; their conditions may differ. Where only a bound is given, the exact number is not on record here.

T1 sequence (Q12809 whole entry): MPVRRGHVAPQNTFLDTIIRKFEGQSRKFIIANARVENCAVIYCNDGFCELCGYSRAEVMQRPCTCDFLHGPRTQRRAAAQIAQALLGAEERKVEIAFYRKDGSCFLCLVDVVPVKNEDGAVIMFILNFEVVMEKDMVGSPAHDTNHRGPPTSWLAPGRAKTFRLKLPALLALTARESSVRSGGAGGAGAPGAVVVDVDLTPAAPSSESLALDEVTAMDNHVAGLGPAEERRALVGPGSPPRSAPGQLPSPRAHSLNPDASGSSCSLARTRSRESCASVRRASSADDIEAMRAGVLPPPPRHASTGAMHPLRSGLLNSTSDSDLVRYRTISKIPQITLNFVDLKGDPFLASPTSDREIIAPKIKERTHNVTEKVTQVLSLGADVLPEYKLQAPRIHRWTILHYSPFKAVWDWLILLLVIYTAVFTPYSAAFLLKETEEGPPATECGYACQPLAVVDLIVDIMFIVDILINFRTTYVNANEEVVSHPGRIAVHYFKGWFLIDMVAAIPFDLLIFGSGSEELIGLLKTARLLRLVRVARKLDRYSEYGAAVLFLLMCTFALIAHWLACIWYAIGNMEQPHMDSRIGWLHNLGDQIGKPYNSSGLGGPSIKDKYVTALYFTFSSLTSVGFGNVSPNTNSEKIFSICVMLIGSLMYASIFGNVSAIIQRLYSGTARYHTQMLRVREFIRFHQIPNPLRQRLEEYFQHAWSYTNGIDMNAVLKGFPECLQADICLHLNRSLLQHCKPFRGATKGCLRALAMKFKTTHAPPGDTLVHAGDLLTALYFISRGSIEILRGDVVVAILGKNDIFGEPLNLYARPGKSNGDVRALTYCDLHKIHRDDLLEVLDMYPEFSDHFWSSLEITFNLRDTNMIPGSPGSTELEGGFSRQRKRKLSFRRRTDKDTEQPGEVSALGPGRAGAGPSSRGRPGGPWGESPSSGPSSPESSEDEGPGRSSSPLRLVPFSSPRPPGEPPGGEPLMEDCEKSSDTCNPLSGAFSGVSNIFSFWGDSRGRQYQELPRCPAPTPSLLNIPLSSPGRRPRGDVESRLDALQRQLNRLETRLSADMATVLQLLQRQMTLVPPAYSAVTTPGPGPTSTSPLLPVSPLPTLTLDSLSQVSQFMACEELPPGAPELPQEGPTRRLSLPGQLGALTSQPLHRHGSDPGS
T2 sequence (P15170 whole entry): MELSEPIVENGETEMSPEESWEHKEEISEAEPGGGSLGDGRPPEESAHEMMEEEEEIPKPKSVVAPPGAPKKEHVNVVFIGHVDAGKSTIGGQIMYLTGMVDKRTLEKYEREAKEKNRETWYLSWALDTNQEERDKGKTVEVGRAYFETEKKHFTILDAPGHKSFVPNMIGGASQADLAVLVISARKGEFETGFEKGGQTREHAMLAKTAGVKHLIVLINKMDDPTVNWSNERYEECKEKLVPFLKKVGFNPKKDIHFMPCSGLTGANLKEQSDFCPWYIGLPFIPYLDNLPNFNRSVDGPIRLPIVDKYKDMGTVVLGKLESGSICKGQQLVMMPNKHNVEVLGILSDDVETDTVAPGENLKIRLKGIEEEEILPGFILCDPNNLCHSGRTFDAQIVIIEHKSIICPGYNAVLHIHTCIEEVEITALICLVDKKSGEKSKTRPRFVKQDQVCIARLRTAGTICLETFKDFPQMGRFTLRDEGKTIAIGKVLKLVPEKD

The term pIC50 denotes −log10 of the IC50, conventionally taken in molar units. Turning to `Cc1ccc(C(=O)NCc2ccc3c(c2F)CN(C2CCC(=O)NC2=O)C3=O)cc1` (centres unmarked) [FDAB-65], the “T/C (%) Day 3” value in the data set with MV-4-11-Luc xenograft is listed as 4.58%. Further, the “T/C (%) Day 7” value with MV-4-11-Luc xenograft is recorded as 1.40%. In addition, the “T/C (%) Day 10” value with MV-4-11-Luc xenograft is 1.01%. Besides, in the data set with MV-4-11-Luc xenograft, the “T/C (%) Day 14” value amounted to 0.78%. The compound further returned a hERG inhibition rate on hERG potassium channel of 11%. The inhibition at 1 µM at GSPT1 protein is over 80%. The negative-log IC50 (pIC50) was 7.00 to 8.00 in the data set with U937 cells; 7.00 to 8.00 in the data set on MV-4-11 cells [2]; 6.00 to 7.00 in the data set with MOLM-13 cells [3]; 8.00 to 9.00 in the data set with NCI-H929 cells [4]; 6.00 to 7.00 in the data set on AML-2 cells. The “apoptotic effect on MV-4-11 cells” value with MV-4-11 cells [1] (treated for 7 h, 10 µM) is recorded as “no apoptotic effect”; in the data set with MV-4-11 cells [1] (treated for 16 h), “apoptosis was induced”.
Take `O=C1CCC(N2Cc3cc(CNC(=O)C(F)(F)c4ccc(Cl)cc4)ccc3C2=O)C(=O)N1` (centres unmarked) [CC-90009, reference compound]: in the data set with MV-4-11-Luc xenograft, the “T/C (%) Day 3” value was 100.80%, the “T/C (%) Day 7” value is recorded as 133.08%, the “T/C (%) Day 10” value stood at 127.05% and the “T/C (%) Day 14” value stood at 132.90%. The “tumor inhibitory effect in mouse xenograft model” value in the data set with MV-4-11-Luc xenograft (oral administration, 10 mg/kg twice daily, within 14 days, 10 mg/kg) is on record as “no tumor inhibitory effects; also recorded: no tumor inhibitory activity”. Besides, in the data set with MOLM-13 cells [5] (compound alone), the pIC50 was 5.85. Besides, the pIC50 with MOLM-13 cells [5] (in combination with 200 nM azacitidine) was 7.36. The hERG inhibition rate at hERG potassium channel is 66%. For the same compound, the pIC50 with NCI-H929 cells [6] (compound alone) was 5.50. Moreover, the negative logarithm of the IC50 (pIC50) in the data set with NCI-H929 cells [6] (in combination with 500 nM dexamethasone) was 7.11.
In the case of `Cc1ccc(C(=O)NCc2ccc3c(c2F)CN(C2CCC(=O)NC2=O)C3=O)cc1F` (centres unmarked) [FDAB-120], in the data set on MV-4-11-Luc xenograft, the “T/C (%) Day 3” value is listed as 6.69%, the “T/C (%) Day 7” value is given as 1.58%, the “T/C (%) Day 10” value was determined as 2.00% and the “T/C (%) Day 14” value turned out to be 2.12%. At hERG potassium channel, the hERG inhibition rate was 13%. Besides, the inhibition at 1 µM on GSPT1 protein is over 80%. For the same compound, the negative logarithm of the IC50 (pIC50) in the data set on MV-4-11 cells [2] was 7.00 to 8.00.
With `O=C1CCC(N2Cc3c(ccc(CNC(=O)c4cc5cc(F)ccc5o4)c3F)C2=O)C(=O)N1` (centres unmarked) [FDAB-46], the inhibition at 1 µM at GSPT1 protein is over 80%. The pIC50 is 7.00 to 8.00 with U937 cells; 8.00 to 9.00 in the data set with MV-4-11 cells [2]; 6.00 to 7.00 in the data set with MOLM-13 cells [3]; 8.00 to 9.00 in the data set on NCI-H929 cells [4]; 6.00 to 7.00 with AML-2 cells. Moreover, the “apoptotic effect on MV-4-11 cells” value in the data set on MV-4-11 cells [1] (treated for 7 h, 10 µM) is listed as “no apoptotic effect”; in the data set with MV-4-11 cells [1] (treated for 16 h), “apoptosis was induced”.
